According to US7041851B2, “Fluorinated phenyl thiophenyl derivatives and their use for imaging serotonin transporters” (The Trustees of the University of Pennsylvania, priority 2002, dated 2006):

How the values were obtained:
[1] = In vivo metabolism of [18F]ACF in rats; details: three rats, one hour after iv injection
Description: In vivo metabolism of [^18F]ACF ([^18F]25), in three rats was evaluated at one hour after iv injection.

[2] = target: T1, SERT (Rattus norvegicus, UniProt P31652); experiment: Pretreatment with monoamine reuptake inhibitors, specific binding of [18F]ACF in rat brain regions; assay type: in vivo, rats; set-up: Tracer uptake: Cortex / Tracer uptake: Remainder / Tracer uptake: Hypothalamus / Tracer uptake: Whole brain / Tracer uptake: Blood / Tracer uptake: Cerebellum / Tracer uptake: Striatum / Tracer uptake: Hippocampus: unit not given here; details: for Ratio to Cerebellum: Cerebellum / Ratio to Cerebellum: Cortex / Ratio to Cerebellum: Hippocampus / Ratio to Cerebellum: Hypothalamus / Ratio to Cerebellum: Remainder / Ratio to Cerebellum: Striatum / Tracer uptake: Blood / Tracer uptake: Cerebellum / Tracer uptake: Cortex / Tracer uptake: Hippocampus / Tracer uptake: Hypothalamus / Tracer uptake: Remainder / Tracer uptake: Striatum / Tracer uptake: Whole brain: 1 h after tracer
T1 construct: from tissue; host or cells: rat brain in vivo (hypothalamus, striatum, hippocampus, cerebellum)
T1 sequence (P31652 whole entry): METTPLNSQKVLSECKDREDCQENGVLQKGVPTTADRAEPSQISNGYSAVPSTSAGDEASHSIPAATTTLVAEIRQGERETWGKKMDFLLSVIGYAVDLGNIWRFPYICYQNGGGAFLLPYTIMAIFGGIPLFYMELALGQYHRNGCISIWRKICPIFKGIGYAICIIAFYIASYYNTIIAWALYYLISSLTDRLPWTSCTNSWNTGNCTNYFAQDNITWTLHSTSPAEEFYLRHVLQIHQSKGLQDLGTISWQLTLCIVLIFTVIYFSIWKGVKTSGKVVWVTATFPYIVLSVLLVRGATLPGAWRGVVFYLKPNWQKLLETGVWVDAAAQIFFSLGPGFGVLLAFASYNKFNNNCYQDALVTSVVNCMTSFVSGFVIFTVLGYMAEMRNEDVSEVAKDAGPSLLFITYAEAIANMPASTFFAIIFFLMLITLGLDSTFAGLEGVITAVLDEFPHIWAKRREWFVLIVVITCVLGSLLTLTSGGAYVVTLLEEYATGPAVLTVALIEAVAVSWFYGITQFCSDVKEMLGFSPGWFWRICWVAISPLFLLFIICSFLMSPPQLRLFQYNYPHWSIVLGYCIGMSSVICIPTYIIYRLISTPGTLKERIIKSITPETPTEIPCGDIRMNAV

[3] = Organ distribution and brain regional uptake of [18F]ACF in rats
[4] = rats, Control (saline-pretreated)
[5] = rats, pretreated (+)McN5652 2 mg/kg iv 5 min prior
[6] = rats, pretreated Methylphenidate 2 mg/kg iv 5 min prior
[7] = rats, pretreated Nisoxetine 2 mg/kg iv 5 min prior

SMILES: CN(C)Cc1ccccc1Sc1cc([18F])c(Cl)cc1N [[^18F]ACF]
- Activity extracted from the brain that was original compound (HPLC) [1]: 95.5±0.40%
- Percentage of organic-extractable material, kidney [1]: 20.25±0.60%
- Percentage of organic-extractable material, liver [1]: 20.03±6.60%
- Percentage of organic-extractable material, plasma [1]: 6.76±1.00%
- Specific retention in brain regions after pretreatment ([2]; rats pretreated with methylphenidate): No significant differences
- Specific retention in brain regions after pretreatment ([2]; rats pretreated with nisoxetine): No significant differences
- Specific retention in hypothalamus, striatum and hippocampus after pretreatment ([2]; rats, 60 min, (+)McN5652 2 mg/Kg 5 min prior to tracer injection): significant decrease
- Ratio to Cerebellum: Cerebellum [2, 4]: 1.00 ± 0.00
- Ratio to Cerebellum: Cortex [2, 4]: 1.86 ± 0.05
- Ratio to Cerebellum: Hippocampus [2, 4]: 2.52 ± 0.13
- Ratio to Cerebellum: Hypothalamus [2, 4]: 2.96 ± 0.03
- Ratio to Cerebellum: Remainder [2, 4]: 2.26 ± 0.03
- Ratio to Cerebellum: Striatum [2, 4]: 2.63 ± 0.23
- Tracer uptake: Blood [2, 4]: 0.26 ± 0.03
- Tracer uptake: Cerebellum [2, 4]: 0.21 ± 0.02
- Tracer uptake: Cortex [2, 4]: 0.39 ± 0.03
- Tracer uptake: Hippocampus [2, 4]: 0.53 ± 0.03
- Tracer uptake: Hypothalamus [2, 4]: 0.63 ± 0.05
- Tracer uptake: Remainder [2, 4]: 0.48 ± 0.04
- Tracer uptake: Striatum [2, 4]: 0.56 ± 0.09
- Tracer uptake: Whole brain [2, 4]: 0.81 ± 0.09
- Ratio to Cerebellum: Cerebellum [2, 5]: 1.00 ± 0.00
- Ratio to Cerebellum: Cortex [2, 5]: 1.43 ± 0.27
- Ratio to Cerebellum: Hippocampus [2, 5]: 1.93 ± 0.21
- Ratio to Cerebellum: Hypothalamus [2, 5]: 1.36 ± 0.15
- Ratio to Cerebellum: Remainder [2, 5]: 1.37 ± 0.16
- Ratio to Cerebellum: Striatum [2, 5]: 1.48 ± 0.32
- Tracer uptake: Blood [2, 5]: 0.26 ± 0.03
- Tracer uptake: Cerebellum [2, 5]: 0.17 ± 0.03
- Tracer uptake: Cortex [2, 5]: 0.24 ± 0.02
- Tracer uptake: Hippocampus [2, 5]: 0.34 ± 0.06
- Tracer uptake: Hypothalamus [2, 5]: 0.24 ± 0.03
- Tracer uptake: Remainder [2, 5]: 0.23 ± 0.01
- Tracer uptake: Striatum [2, 5]: 0.25 ± 0.03
- Tracer uptake: Whole brain [2, 5]: 0.42 ± 0.02
- Ratio to Cerebellum: Cerebellum [2, 6]: 1.00 ± 0.00
- Ratio to Cerebellum: Cortex [2, 6]: 2.02 ± 0.21
- Ratio to Cerebellum: Hippocampus [2, 6]: 2.50 ± 0.15
- Ratio to Cerebellum: Hypothalamus [2, 6]: 3.05 ± 0.14
- Ratio to Cerebellum: Remainder [2, 6]: 2.23 ± 0.05
- Ratio to Cerebellum: Striatum [2, 6]: 2.75 ± 0.09
- Tracer uptake: Blood [2, 6]: 0.28 ± 0.02
- Tracer uptake: Cerebellum [2, 6]: 0.17 ± 0.02
- Tracer uptake: Cortex [2, 6]: 0.35 ± 0.03
- Tracer uptake: Hippocampus [2, 6]: 0.43 ± 0.03
- Tracer uptake: Hypothalamus [2, 6]: 0.52 ± 0.07
- Tracer uptake: Remainder [2, 6]: 0.38 ± 0.05
- Tracer uptake: Striatum [2, 6]: 0.47 ± 0.06
- Tracer uptake: Whole brain [2, 6]: 0.67 ± 0.04
- Ratio to Cerebellum: Cerebellum [2, 7]: 1.00 ± 0.00
- Ratio to Cerebellum: Cortex [2, 7]: 1.94 ± 0.16
- Ratio to Cerebellum: Hippocampus [2, 7]: 2.44 ± 0.11
- Ratio to Cerebellum: Hypothalamus [2, 7]: 2.89 ± 0.11
- Ratio to Cerebellum: Remainder [2, 7]: 2.17 ± 0.04
- Ratio to Cerebellum: Striatum [2, 7]: 2.50 ± 0.12
- Tracer uptake: Blood [2, 7]: 0.26 ± 0.01
- Tracer uptake: Cerebellum [2, 7]: 0.19 ± 0.01
- Tracer uptake: Cortex [2, 7]: 0.37 ± 0.04
- Tracer uptake: Hippocampus [2, 7]: 0.46 ± 0.02
- Tracer uptake: Hypothalamus [2, 7]: 0.55 ± 0.02
- Tracer uptake: Remainder [2, 7]: 0.41 ± 0.01
- Tracer uptake: Striatum [2, 7]: 0.47 ± 0.03
- Tracer uptake: Whole brain [2, 7]: 0.74 ± 0.04
- Organ distribution: Blood ([3]; 2 min after iv injection): 6.56 ± 0.64 % dose/organ
- Organ distribution: Bone ([3]; 2 min after iv injection): 0.01 ± 0.00 % dose/organ
- Organ distribution: Brain ([3]; 2 min after iv injection): 3.27±0.79 % dose/organ
- Organ distribution: Heart ([3]; 2 min after iv injection): 1.69 ± 0.24 % dose/organ
- Organ distribution: Kidney ([3]; 2 min after iv injection): 6.97 ± 0.73 % dose/organ
- Organ distribution: Liver ([3]; 2 min after iv injection): 9.41 ± 1.82 % dose/organ
- Organ distribution: Lung ([3]; 2 min after iv injection): 14.89 ± 2.28 % dose/organ
- Organ distribution: Muscle ([3]; 2 min after iv injection): 14.34 ± 9.76 % dose/organ
- Organ distribution: Skin ([3]; 2 min after iv injection): 4.76 ± 0.89 % dose/organ
- Organ distribution: Spleen ([3]; 2 min after iv injection): 0.64 ± 0.20 % dose/organ
- Ratio to Cerebellum: Cerebellum ([3]; 2 min after iv injection): 1.00 ± 0.00
- Ratio to Cerebellum: Cortex ([3]; 2 min after iv injection): 1.84 ± 0.43
- Ratio to Cerebellum: Hippocampus ([3]; 2 min after iv injection): 1.24 ± 0.15
- Ratio to Cerebellum: Hypothalamus ([3]; 2 min after iv injection): 1.37 ± 0.19
- Ratio to Cerebellum: Remainder ([3]; 2 min after iv injection): 1.32 ± 0.21
- Ratio to Cerebellum: Striatum ([3]; 2 min after iv injection): 1.41 ± 0.31
- Regional brain distribution: Cerebellum ([3]; 2 min after iv injection): 1.33 ± 0.51 % dose/g
- Regional brain distribution: Cortex ([3]; 2 min after iv injection): 2.31 ± 0.46 % dose/g
- Regional brain distribution: Hippocampus ([3]; 2 min after iv injection): 1.60 ± 0.46 % dose/g
- Regional brain distribution: Hypothalamus ([3]; 2 min after iv injection): 1.76 ± 0.48 % dose/g
- Regional brain distribution: Remainder ([3]; 2 min after iv injection): 1.69 ± 0.43 % dose/g
- Regional brain distribution: Striatum ([3]; 2 min after iv injection): 1.78 ± 0.36 % dose/g
- Organ distribution: Blood ([3]; 30 min after iv injection): 4.52 ± 0.22 % dose/organ
- Organ distribution: Bone ([3]; 30 min after iv injection): 0.04 ± 0.03 % dose/organ
